US9239334B2, “Fatty acid C16: 1N7-palmitoleate a lipokine and biomarker for metabolic status” (PRESIDENT AND FELLOWS OF HARVARD COLLEGE, priority 2008, dated 2016)
“Also recorded” adds a separate entry of the source.

How the values were obtained:
[1] = tested on: SCD-1 promoter; experiment: SCD-1 promoter-driven luciferase reporter in FAO hepatoma cells; type: cell-based, murine
Description: This possibility was tested using several highly sensitive assays to probe the functional profile and activities of plasma lipids. SCD-1 was chosen as a target because it was determined previously that the suppression of hepatic SCD-1 activity is a major alteration in FABP-deficient mice under diet-induced or genetic obesity. Cao et al., 2006; Maeda et al., 2005. Hepatic SCD-1 expression is regulated by a variety of hormones and nutritional factors such as insulin, glucose, and polyunsaturated fatty acids (PUFAs). Ntambi & Miyazaki, 43 Prog. Lipid Res. 91-104 (2004). […] Chu et al., 26 Mol. Cell Biol. 6786-98 (2006); Ntambi, 40 J. Lipid Res. 1549-58 (1999). The 1.5 kb murine SCD-1 promoter was placed in front of a luciferase reporter and inserted into an adenovirus construct. FAO rat hepatoma cells infected with this adenovirus verified the responsiveness of this reporter to PUFA, consistent with previous observations (FIG. 15). Because this assay system was adapted to a microplate format, very small amounts of lipids were required for experimentation. This system allowed direct testing for the effects of lipids extracted from plasma of WT and FABP-deficient animals.
Lipids were extracted from whole plasma and applied to liver cells expressing the SCD-1 promoter reporter gene. […] To control for any difference in the amount of lipids extracted from plasma and to mimic the in vivo regulation of SCD-1 expression, mixtures of FFAs were generated with the same molar ratio detected in WT or FABP-deficient plasma lipids using the major fatty acids listed in FIG. 2C. […]
Samples of 200 μl serum were collected using heparin-coated glass tubes and spun at 13,000 g in a microcentrifuge to separate the plasma. […] Tissue protein lysates was separated with SDS-PAGE gels and phosphorylated or total proteins were detected with the following antibodies: phospho AKT Serine 473, AKT, insulin receptor, phospho-tyrosine (Santa Cruz Biotech.); IRS-1 and IRS-2 (Upstate); phospho-GSK and GSK (Cell Signaling Tech.); phospho-insulin receptor from (Calbiocbem). […]

[2] = tested on: C2C12 cells; experiment: Glucose uptake in C2C12 myotubes; type: cell-based
Excerpt: FIG. 3H is the glucose uptake in C2C12 myotubes treated with insulin or palmitoleate. Top panel is immunoblotting of C2C12 cell lysates treated with insulin or palmitoleate using anti-Glut1 or Glut4 antibodies. *: p<0.05.
The effect of C16:1n7-palmitoleate on muscle insulin signaling was explored by pre-treating C2C12 myotubes with either palmitate or palmitoleate overnight and then stimulating the cells with insulin. […] Conversely, C16:1n7-palmitoleate had little effect on its own in this in vitro setting (FIG. 3G). When cells were co-treated with both palmitate and palmitoleate, however, palmitoleate rescued the palmitate-induced reduction in insulin-stimulated AKT phosphorylation. […] The mechanism of this increase is not, apparently, associated with alterations in the absolute levels of Glut1 and Glut4 proteins (FIG. 3H).

[3] = tested on: MCP1, TNFalpha and IL6 expression in adipocyte fraction; experiment: Cytokine expression in adipocyte fraction of epididymal fat pads; type: cell-based, mice; details: 500 μM for 2 hrs, compared to palmitate
Description: FIGS. 16A and 16B present cytokine expression in adipocyte and stromal vascular fractions treated with fatty acids. Epidydamal fat pads were dissected from WT mice and separated into adioycte and stromal vascular fractions as described in Experimental Procedures. Each fraction was treated with palmitate or palmitoleate at 500 μM for 2 hrs. Gene expression was determined with quantitative real-time PCR.
Obesity is associated with low-grade inflammation and increased inflammatory activities in liver and adipose tissues contribute to the development of systemic insulin resistance. Hotamisligil, 444 Nature 860-67 (2006). The effect of plasma lipids on adipose tissue inflammatory responses was explored using explants of adipose tissue treated with lipids from WT or FABP^−/− mice. […] Because adipose tissue contains multiple cell populations in addition to fat cells, adipose tissue was separated into adipocytes and stromal vascular fractions, and each fraction treated with either palmitate or palmitoleate.

Compound: CCCCCC/C=C\CCCCCCCC(=O)O [palmitoleate, C16:1n7-palmitoleate]
- effect of palmitate on SCD-1 promoter ([1]; cells treated with a mixture of palmitate and palmitoleate): antagonized
- SCD-1 promoter-driven reporter activity ([1]; hepatocytes (FAO) treated with a single fatty acid, 300 μM): negatively regulated; also recorded: comparable to arachidonic acid; also recorded: suppressed
- glucose uptake [2]: stimulated glucose uptake into C2C12 cells to a level similar to insulin
- cytokine expression in adipocyte fractions [3]: suppressed
